Reference: patent US8137705B2 (priority 2005, dated 2012)

How the values were obtained:
Assay type in all cases: cell-based
E. coli O26:H11 = E. coli O26:H11 counts in water containing rumen content or feces treated with chemical combinations; details: 21° C.; for E. coli O26:H11 counts (log10 cfu/ml) at min: 0: 0 min; for E. coli O26:H11 counts (log10 cfu/ml) at min: 2: 2 min; for E. coli O26:H11 counts (log10 cfu/ml) at min: 5: 5 min; for E. coli O26:H11 counts (log10 cfu/ml) at min: 10: 10 min; for E. coli O26:H11 counts (log10 cfu/ml) at min: 20: 20 min; for E. coli O26:H11 counts (log10 cfu/ml) at min: 30: 30 min; for E. coli O26:H11 counts (log10 cfu/ml) at min: 60: 60 min; for E. coli O26:H11 counts (log10 cfu/ml) at min: 120: 120 min
E. coli O111:NM = E. coli O111:NM counts in water containing rumen content or feces treated with chemical combinations; details: 21° C.; for E. coli O111:NM counts (log10 cfu/ml) at min 0: 0 min; for E. coli O111:NM counts (log10 cfu/ml) at min 2: 2 min; for E. coli O111:NM counts (log10 cfu/ml) at min 5: 5 min; for E. coli O111:NM counts (log10 cfu/ml) at min 10: 10 min; for E. coli O111:NM counts (log10 cfu/ml) at min 20: 20 min; for E. coli O111:NM counts (log10 cfu/ml) at min 30: 30 min; for E. coli O111:NM counts (log10 cfu/ml) at min 60: 60 min; for E. coli O111:NM counts (log10 cfu/ml) at min 120: 120 min
E. coli O157:H7 = E. coli O157:H7 counts in water containing rumen content or feces treated with chemicals or chemical combinations; details: for E. coli O157:H7 counts (log10 cfu/ml) at min 0 / E. coli O157:H7 counts (log10 cfu/ml) at min 2 / E. coli O157:H7 counts (log10 cfu/ml) at min 5 / E. coli O157:H7 counts (log10 cfu/ml) at min 10 / E. coli O157:H7 counts (log10 cfu/ml) at min 20 / E. coli O157:H7 counts (log10 cfu/ml) at min 30 / E. coli O157:H7 counts (log10 cfu/ml) at min 60 / E. coli O157:H7 counts (log10 cfu/ml) at min 120: 21° C.; for E. coli O157:H7 counts (log10 cfu/ml) at min 0: 0 min; for E. coli O157:H7 counts (log10 cfu/ml) at min 2: 2 min; for E. coli O157:H7 counts (log10 cfu/ml) at min 5: 5 min; for E. coli O157:H7 counts (log10 cfu/ml) at min 10: 10 min; for E. coli O157:H7 counts (log10 cfu/ml) at min 20: 20 min; for E. coli O157:H7 counts (log10 cfu/ml) at min 30: 30 min; for E. coli O157:H7 counts (log10 cfu/ml) at min 60: 60 min; for E. coli O157:H7 counts (log10 cfu/ml) at min 120: 120 min
[1] = water containing feces (20:1, v/w)
[2] = water containing rumen content (10:1, v/w)

CCCCCCCC(=O)O [0.05% caprylic acid, caprylic acid]
5.7 log10 cfu/ml: E. coli O111:NM counts (log10 cfu/ml) at min 0 (E. coli O111:NM; [1]) | E. coli O111:NM counts (log10 cfu/ml) at min 5 (E. coli O111:NM; [1]) | E. coli O111:NM counts (log10 cfu/ml) at min 30 (E. coli O111:NM; [1]) | E. coli O111:NM counts (log10 cfu/ml) at min 5 (E. coli O111:NM; [2])
2.3 log10 cfu/ml: E. coli O157:H7 counts (log10 cfu/ml) at min 10 (E. coli O157:H7; [1])
2.0 log10 cfu/ml: E. coli O157:H7 counts (log10 cfu/ml) at min 20 (E. coli O157:H7; [1]) | E. coli O157:H7 counts (log10 cfu/ml) at min 30 (E. coli O157:H7; [1]) | E. coli O157:H7 counts (log10 cfu/ml) at min 60 (E. coli O157:H7; [1])
5.3 log10 cfu/ml: E. coli O26:H11 counts (log10 cfu/ml) at min: 20 (E. coli O26:H11; [1]) | E. coli O26:H11 counts (log10 cfu/ml) at min: 0 (E. coli O26:H11; [2]) | E. coli O26:H11 counts (log10 cfu/ml) at min: 20 (E. coli O26:H11; [2])
5.9 log10 cfu/ml: E. coli O157:H7 counts (log10 cfu/ml) at min 10 (E. coli O157:H7; [2]) | E. coli O157:H7 counts (log10 cfu/ml) at min 30 (E. coli O157:H7; [2]) | E. coli O157:H7 counts (log10 cfu/ml) at min 60 (E. coli O157:H7; [2])
6.0 log10 cfu/ml: E. coli O157:H7 counts (log10 cfu/ml) at min 0 (E. coli O157:H7; [1]) | E. coli O157:H7 counts (log10 cfu/ml) at min 0 (E. coli O157:H7; [2]) | E. coli O157:H7 counts (log10 cfu/ml) at min 2 (E. coli O157:H7; [2]) | E. coli O157:H7 counts (log10 cfu/ml) at min 5 (E. coli O157:H7; [2]) | E. coli O157:H7 counts (log10 cfu/ml) at min 20 (E. coli O157:H7; [2]) | E. coli O157:H7 counts (log10 cfu/ml) at min 120 (E. coli O157:H7; [2])
5.5 log10 cfu/ml: E. coli O26:H11 counts (log10 cfu/ml) at min: 0 (E. coli O26:H11; [1]) | E. coli O26:H11 counts (log10 cfu/ml) at min: 5 (E. coli O26:H11; [1]) | E. coli O26:H11 counts (log10 cfu/ml) at min: 10 (E. coli O26:H11; [1]) | E. coli O111:NM counts (log10 cfu/ml) at min 2 (E. coli O111:NM; [1]) | E. coli O111:NM counts (log10 cfu/ml) at min 10 (E. coli O111:NM; [1]) | E. coli O111:NM counts (log10 cfu/ml) at min 60 (E. coli O111:NM; [1]) | E. coli O111:NM counts (log10 cfu/ml) at min 2 (E. coli O111:NM; [2]) | E. coli O111:NM counts (log10 cfu/ml) at min 10 (E. coli O111:NM; [2]) | E. coli O111:NM counts (log10 cfu/ml) at min 120 (E. coli O111:NM; [2])
5.8 log10 cfu/ml: E. coli O111:NM counts (log10 cfu/ml) at min 20 (E. coli O111:NM; [2])
1.7 log10 cfu/ml: E. coli O157:H7 counts (log10 cfu/ml) at min 120 (E. coli O157:H7; [1])
5.6 log10 cfu/ml: E. coli O111:NM counts (log10 cfu/ml) at min 20 (E. coli O111:NM; [1]) | E. coli O111:NM counts (log10 cfu/ml) at min 0 (E. coli O111:NM; [2]) | E. coli O111:NM counts (log10 cfu/ml) at min 30 (E. coli O111:NM; [2]) | E. coli O157:H7 counts (log10 cfu/ml) at min 2 (E. coli O157:H7; [1])
5.0 log10 cfu/ml: E. coli O26:H11 counts (log10 cfu/ml) at min: 120 (E. coli O26:H11; [1])
5.4 log10 cfu/ml: E. coli O26:H11 counts (log10 cfu/ml) at min: 2 (E. coli O26:H11; [1]) | E. coli O26:H11 counts (log10 cfu/ml) at min: 2 (E. coli O26:H11; [2]) | E. coli O26:H11 counts (log10 cfu/ml) at min: 10 (E. coli O26:H11; [2]) | E. coli O26:H11 counts (log10 cfu/ml) at min: 30 (E. coli O26:H11; [2]) | E. coli O26:H11 counts (log10 cfu/ml) at min: 60 (E. coli O26:H11; [2]) | E. coli O26:H11 counts (log10 cfu/ml) at min: 120 (E. coli O26:H11; [2]) | E. coli O111:NM counts (log10 cfu/ml) at min 120 (E. coli O111:NM; [1]) | E. coli O111:NM counts (log10 cfu/ml) at min 60 (E. coli O111:NM; [2])
5.2 log10 cfu/ml: E. coli O26:H11 counts (log10 cfu/ml) at min: 30 (E. coli O26:H11; [1]) | E. coli O26:H11 counts (log10 cfu/ml) at min: 60 (E. coli O26:H11; [1]) | E. coli O26:H11 counts (log10 cfu/ml) at min: 5 (E. coli O26:H11; [2])
4.3 log10 cfu/ml: E. coli O157:H7 counts (log10 cfu/ml) at min 5 (E. coli O157:H7; [1])
substantial inactivation: inactivation of E. coli O157:H7 within 20 minutes (E. coli O157:H7; butyric acid >2%, caprylic acid >0.1%, data not shown)
